Results reported in US12649750B2, “Macrocyclic compounds, compositions, and methods of using thereof” (Sionna Therapeutics Inc., priority 2022, dated 2026).

Columns and labels:
CFTR = target: T1, CFTR (Homo sapiens, UniProt P13569, DEL508-508); assay: TECC24 AUC fold over DMSO @10 μM, CFTR-mediated transepithelial chloride transport in CF-HBE cells; assay type: cell-based; conditions: test agent AUC divided by DMSO vehicle AUC, primary CF-HBE cells, ΔF508 homozygous donor, 48 hours incubation
T1 construct: Primary human bronchial epithelial cells from a ΔF508 homozygous CF donor; host or cells: primary human bronchial epithelial cells (CF-HBE), ΔF508 homozygous donor
Summary of the method: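 Value is ratio of test-agent to DMSO AUC of equivalent transepithelial Cl− current, integrated from forskolin (10 μM) stimulation to CFTR inhibitor-172 (20 μM) block, with benzamil 10 μM present. CF-HBE (ΔF508/ΔF508) cultures had 48 h compound exposure at 10 μM, 36.5° C before recording.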

NBD1 = target: T2, NBD1 (Homo sapiens, UniProt P13569); assay: Aggregation analysis using differential static light scattering (DSLS), thermal stability of NBD1 (ΔTagg); assay type: binding; conditions: ΔTagg versus DMSO control, NBD1 0.2 mg/ml
T2 construct: Purified recombinant NBD1 was produced using previously described methods; made in house
Summary of the method: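 Read-out is ΔTagg: the aggregation temperature, taken at the inflection of the light-scattering curve, less the average of DMSO control wells. Recombinant NBD1 (0.2 mg/ml, pH7.6 buffer containing 2 mM ATP) with test compound was heated at 1° C. per minute up to 70° C.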

T2 sequence (P13569 423-646 limits assumed): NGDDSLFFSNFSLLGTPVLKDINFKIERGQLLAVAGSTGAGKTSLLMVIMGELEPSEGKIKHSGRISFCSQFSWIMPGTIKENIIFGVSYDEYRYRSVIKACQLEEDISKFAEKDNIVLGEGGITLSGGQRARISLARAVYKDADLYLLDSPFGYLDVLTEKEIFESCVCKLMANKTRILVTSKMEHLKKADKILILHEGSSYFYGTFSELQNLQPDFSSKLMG
T1 sequence (P13569 with tags, fused parts or gaps DEL508-508): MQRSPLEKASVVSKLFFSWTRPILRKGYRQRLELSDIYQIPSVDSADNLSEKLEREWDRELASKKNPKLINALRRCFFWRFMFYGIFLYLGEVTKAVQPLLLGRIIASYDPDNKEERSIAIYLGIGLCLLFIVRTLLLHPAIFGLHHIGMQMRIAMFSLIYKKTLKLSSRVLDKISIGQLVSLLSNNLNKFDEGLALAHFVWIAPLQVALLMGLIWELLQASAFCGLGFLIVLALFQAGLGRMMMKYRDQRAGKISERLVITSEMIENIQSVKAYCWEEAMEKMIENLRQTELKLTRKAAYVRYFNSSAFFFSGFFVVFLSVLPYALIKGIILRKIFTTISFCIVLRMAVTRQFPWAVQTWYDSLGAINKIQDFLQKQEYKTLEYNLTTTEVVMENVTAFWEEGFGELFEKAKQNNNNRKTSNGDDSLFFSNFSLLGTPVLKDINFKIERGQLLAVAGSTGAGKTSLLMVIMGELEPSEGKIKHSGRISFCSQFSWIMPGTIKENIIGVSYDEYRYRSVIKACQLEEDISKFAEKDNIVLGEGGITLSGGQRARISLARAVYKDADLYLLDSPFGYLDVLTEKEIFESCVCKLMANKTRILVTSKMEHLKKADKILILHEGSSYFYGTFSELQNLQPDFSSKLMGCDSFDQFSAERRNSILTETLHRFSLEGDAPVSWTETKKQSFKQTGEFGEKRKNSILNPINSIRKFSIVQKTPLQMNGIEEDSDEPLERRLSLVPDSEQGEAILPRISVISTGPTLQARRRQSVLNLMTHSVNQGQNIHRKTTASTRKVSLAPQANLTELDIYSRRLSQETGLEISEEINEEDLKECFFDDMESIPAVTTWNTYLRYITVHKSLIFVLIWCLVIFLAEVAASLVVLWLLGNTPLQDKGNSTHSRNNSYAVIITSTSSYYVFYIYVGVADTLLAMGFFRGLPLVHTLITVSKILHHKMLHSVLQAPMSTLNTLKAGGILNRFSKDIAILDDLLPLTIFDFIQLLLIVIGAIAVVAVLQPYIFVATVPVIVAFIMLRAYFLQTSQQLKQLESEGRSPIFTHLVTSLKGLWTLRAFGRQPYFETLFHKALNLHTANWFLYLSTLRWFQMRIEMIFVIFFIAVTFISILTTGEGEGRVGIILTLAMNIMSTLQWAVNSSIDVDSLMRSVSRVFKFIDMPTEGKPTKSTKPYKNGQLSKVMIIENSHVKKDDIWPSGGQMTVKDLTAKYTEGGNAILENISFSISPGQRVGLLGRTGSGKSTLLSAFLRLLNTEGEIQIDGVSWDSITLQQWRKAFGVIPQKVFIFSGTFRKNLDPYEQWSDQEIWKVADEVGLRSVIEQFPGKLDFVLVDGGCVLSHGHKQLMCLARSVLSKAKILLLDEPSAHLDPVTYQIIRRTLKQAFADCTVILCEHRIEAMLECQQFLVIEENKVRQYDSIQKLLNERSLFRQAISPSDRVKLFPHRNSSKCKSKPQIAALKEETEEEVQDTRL

Structure (SMILES) | TECC (AUC, 10 μM) (CFTR) | DSLS 3D (100 μM ΔT) (NBD1)
C[C@H](Cc1cccc([C@@]2(C)CCCC(C)(C)CS(=O)(=O)CCc3c(c(F)cc4[nH]ccc34)Oc3ccc(F)c(c3)C3=NN=C2S3)c1)C(=O)O [Compound 194, (2R)-3-[3-[(6R)-22,28-difluoro-6,10,10-trimethyl-12,12-dioxo-24-oxa-12λ6,30-dithia-3,4,19-triazapentacyclo[23.3.1.12,5.015,23.016,20]triaconta-1(29),2,4,15,17,20,22,25,27-nonaen-6-yl]phenyl]-2-methyl-propanoic Acid] | B (a value between 12-20 is marked “B”) | A (an ΔTagg value less than or equal to 5 °C is marked “A”)
C[C@H](Cc1cccc([C@@]2(C)CCCC(C)(C)CS(=O)(=O)CCc3c(c(F)cc4[nH]ccc34)Oc3ccnc(c3)-c3nc2nn3C)c1)C(=O)O [Compound 197, (2R)-3-[3-[(6R)-22-Fluoro-3,6,10,10-tetramethyl-12,12-dioxo-24-oxa-12λ6-thia-3,4,19,28,30-pentazapentacyclo[23.3.1.12,5.015,23.016,20]triaconta-1(29),2(30),4,15,17,20,22,25,27-nonaen-6-yl]phenyl]-2-methyl-propanoic Acid] | C (a value between 20 and 80 is marked “C”) | C (a value greater than 10 °C and less than or equal to 25 °C is marked “C”)
C[C@H](Cc1ccc(C2(C)CCCC(C)(C)CS(=O)(=O)CCc3c(c(F)cc4[nH]ccc34)Oc3ccc(F)c(c3)-c3nc2nn3C)s1)C(=O)O (stereo partly drawn) [Compound 198, (2R)-3-[5-(22,28-difluoro-3,6,10,10-tetramethyl-12,12-dioxo-24-oxa-12λ6-thia-3,4,19,30-tetrazapentacyclo[23.3.1.12,5.015,23.016,20]triaconta-1(29),2(30),4,15,17,20,22,25,27-nonaen-6-yl)-2-thienyl]-2-methyl-propanoic Acid] | C (a value between 20 and 80 is marked “C”) | C (a value greater than 10 °C and less than or equal to 25 °C is marked “C”)
Cn1nc2nc1-c1cc(ccc1F)Oc1c(F)cc3[nH]ccc3c1CCS(=O)(=O)CC(C)(C)CCCC2(C)c1cccc(CC2CCN(O)C2=O)c1 (centres unmarked) [Compound 199, 3-[[3-(22,28-Difluoro-3,6,10,10-tetramethyl-12,12-dioxo-24-oxa-12λ6-thia-3,4,19,30-tetrazapentacyclo[23.3.1.12,5.015,23.016,20]triaconta-1(29),2(30),4,15,17,20,22,25,27-nonaen-6-yl)phenyl]methyl]-1-hydroxy-pyrrolidin-2-one] | C (a value between 20 and 80 is marked “C”) | C (a value greater than 10 °C and less than or equal to 25 °C is marked “C”)
C[C@H](Cc1cccc([C@@]2(C)CCCC(C)(C)CS(=O)(=O)CCc3c(c(F)c(F)c4[nH]ccc34)Oc3ccc(F)c(c3)-c3nc2nn3C)c1)C(=O)O [Compound 200, (2R)-2-methyl-3-[3-[(6R)-21,22,28-trifluoro-3,6,10,10-tetramethyl-12,12-dioxo-24-oxa-12λ6-thia-3,4,19,30-tetrazapentacyclo[23.3.1.12,5.015,23.016,20]triaconta-1(29),2(30),4,15,17,20,22,25,27-nonaen-6-yl]phenyl]propanoic acid] | C (a value between 20 and 80 is marked “C”) | C (a value greater than 10 °C and less than or equal to 25 °C is marked “C”)
C[C@H](Cc1cccc([C@@]2(C)CCCC(C)(C)CS(=O)(=O)CCc3c(c(F)cc4[nH]ccc34)Oc3cncc(c3)-c3nc2nn3C)c1)C(=O)O [Compound 202, (2R)-3-[3-[(6R)-22-fluoro-3,6,10,10-tetramethyl-12,12-dioxo-24-oxa-12λ6-thia-3,4,19,27,30-pentazapentacyclo[23.3.1.12,5.015,23.016,20]triaconta-1(29),2(30),4,15,17,20,22,25,27-nonaen-6-yl]phenyl]-2-methyl-propanoic Acid] | C (a value between 20 and 80 is marked “C”) | C (a value greater than 10 °C and less than or equal to 25 °C is marked “C”)
C[C@H](Cc1cccc([C@@]2(C)CCCC(C)(C)CS(=O)(=O)CCc3c(c(F)c(F)c4[nH]ccc34)Oc3ccnc(c3)-c3nc2nn3C)c1)C(=O)O [Compound 221, (2R)-3-[3-[(6R)-21,22-difluoro-3,6,10,10-tetramethyl-12,12-dioxo-24-oxa-12λ6-thia-3,4,19,28,30-pentazapentacyclo[23.3.1.12,5.015,23.016,20]triaconta-1(29),2(30),4,15,17,20,22,25,27-nonaen-6-yl]phenyl]-2-methyl-propanoic Acid] | B (a value between 12-20 is marked “B”) | C (a value greater than 10 °C and less than or equal to 25 °C is marked “C”)
Cn1nc2nc1-c1cc(ccn1)Oc1c(F)cc3[nH]ccc3c1CCS(=O)(=O)CC(C)(C)CCC[C@]2(C)c1cccc(CC(=O)O)c1 [Compound 226, 2-[3-[(6R)-22-Fluoro-3,6,10,10-tetramethyl-12,12-dioxo-24-oxa-12λ6-thia-3,4,19,28,30-pentazapentacyclo[23.3.1.12,5.015,23.016,20]triaconta-1(29),2(30),4,15,17,20,22,25,27-nonaen-6-yl]phenyl]acetic Acid] | C (a value between 20 and 80 is marked “C”) | C (a value greater than 10 °C and less than or equal to 25 °C is marked “C”)
Cn1nc2nc1-c1cc(ccn1)Oc1c(F)cc3[nH]ccc3c1CCS(=O)(=O)CC(C)(C)CCC[C@]2(C)c1cccc(CCO)c1 [Compound 227, 2-[3-[(6R)-22-Fluoro-3,6,10,10-tetramethyl-12,12-dioxo-24-oxa-12λ6-thia-3,4,19,28,30-pentazapentacyclo[23.3.1.12,5.015,23.016,20]triaconta-1(29),2(30),4,15,17,20,22,25,27-nonaen-6-yl]phenyl]ethanol] | B (a value between 12-20 is marked “B”) | C (a value greater than 10 °C and less than or equal to 25 °C is marked “C”)
C[C@@H](Cc1cccc([C@@]2(C)CCCC(C)(C)CS(=O)(=O)CCc3c(c(F)cc4[nH]ccc34)[S+]([O-])c3ccnc(c3)-c3nc2co3)c1)C(=O)O (stereo partly drawn) [Compound 229, (2S)-3-[3-[(6R)-22-Fluoro-6,10,10-trimethyl-12,12,24-trioxo-3-oxa-12λ6,24λ4-dithia-19,28,30-triazapentacyclo[23.3.1.12,5.015,23.016,20]triaconta-1(29),2(30),4,15,17,20,22,25,27-nonaen-6-yl]phenyl]-2-methyl-propanoic Acid] | C (a value between 20 and 80 is marked “C”) | C (a value greater than 10 °C and less than or equal to 25 °C is marked “C”)
C[C@H](Cc1cccc([C@@]2(C)CCCC(C)(C)CS(=O)(=O)CCc3c(c(F)cc4[nH]ccc34)[S+]([O-])c3ccnc(c3)-c3nc2nn3C)c1)C(=O)O (stereo partly drawn) [Compound 231, (2R)-3-[3-[(6R)-22-Fluoro-3,6,10,10-tetramethyl-12,12,24-trioxo-12λ6,24λ4-dithia-3,4,19,28,30-pentazapentacyclo[23.3.1.12,5.015,23.016,20]triaconta-1(29),2(30),4,15,17,20,22,25,27-nonaen-6-yl]phenyl]-2-methyl-propanoic Acid] | C (a value between 20 and 80 is marked “C”) | C (a value greater than 10 °C and less than or equal to 25 °C is marked “C”)
C[C@@H](Cc1cccc([C@@]2(C)CCCC(C)(C)CS(=O)(=O)CCc3c(c(F)cc4[nH]ccc34)Cc3ccnc(c3)-c3nc2nn3C)c1)C(=O)O [Compound 233, (2S)-3-[3-[(6R)-22-Fluoro-3,6,10,10-tetramethyl-12,12-dioxo-12λ6-thia-3,4,19,28,30-pentazapentacyclo[23.3.1.12,5.015,23.016,20]triaconta-1(29),2(30),4,15,17,20,22,25,27-nonaen-6-yl]phenyl]-2-methyl-propanoic Acid] | B (a value between 12-20 is marked “B”) | C (a value greater than 10 °C and less than or equal to 25 °C is marked “C”)
C[C@H](Cc1cccc([C@@]2(C)CCCC(C)(C)CS(=O)(=O)CCc3c(c(F)cc4[nH]ccc34)Cc3ccnc(c3)-c3nc2nn3C)c1)C(=O)O [Compound 234, (2R)-3-[3-[(6R)-22-fluoro-3,6,10,10-tetramethyl-12,12-dioxo-12λ6-thia-3,4,19,28,30-pentazapentacyclo[23.3.1.12,5.015,23.016,20]triaconta-1(29),2(30),4,15,17,20,22,25,27-nonaen-6-yl]phenyl]-2-methyl-propanoic Acid] | B (a value between 12-20 is marked “B”) | C (a value greater than 10 °C and less than or equal to 25 °C is marked “C”)
